# Tested on: MMP-9
# Test: MMP-9 expression in macrophages by quantitative ICC
# Format: cell-based, mouse
# Conditions: quantitative ICC (FIG. 16F-16G)
# Protocol: To test amyloid-β phagocytosis by macrophage, in repeated experiments monocytes were isolated from the bone marrow of wild-type mice (n=18 mice) and differentiated into macro-phage by 7-day cultivation in complete RPMI-1640 medium (#21870; Life Technologies) with 10% serum and 20 ng/ml MCSF (#315-02; PeproTech). Bone marrow-derived macrophages (MΦBM) were generated from femurs and tibiae cultured for 6-7 days in complete RPMI 1640 medium (Life Technologies) with 10% FBS, 100 U/ml penicillin, 100 μg/ml streptomycin, 2 mM L-glutamine and 20 ng/ml MCSF (PeproTech). Primary cultures of macrophage were then plated at 1.2×10^5 cells per well (3-4 wells for each condition) in 24-well tissue-culture plates on glass cover-slips overnight. Next, macrophages were either treated with 30 μg/ml GA (Copaxone®; TEVA Neuroscience), Brefeldin A (BFA; Sigma, 1X), or 10 μM Minocycline (Sigma) for the duration of 1, 3, or 24 h, or not treated (control group). […] The fluorescent signal and its total area were determined and quantified by the conversion of individual images to greyscale and standardizing to baseline using histogram-based thresholds with NIH ImageJ software. […]
# Next, MMP-9 expression and OPN proteolytic fragments were analyzed. […]
substance,measurement,value
glatiramer acetate [GA],increase of MMP-9 expression in macrophages,2.7 fold
